Reference: patent publication US20060029995A1, “Novel class of metacaspases” (Vlaams Interuniversitair Instituut Voor Biotechnologie VZW, priority 2003, published 2006)
Read-outs that look alike come from different tables or passages of the source. Starred links: 1 amine or outer side, 2 acyl side, 3 side chain; linkers in the order of their positions; H or OH if unused. Non-standard residues stand in square brackets, D forms with d. Residues, ends and D or L forms follow the SMILES beside them. *: point of attachment. Sta = CC(C)C[C@H](N)[C@@H](O)CC(=O)O; AMC = Cc1cc(=O)oc2cc(N*)ccc12; Isovaleryl = CC(C)CC(=O)*; code Z = not defined here; Cbz = O=C(OCc1ccccc1)*; Boc = CC(C)(C)OC(=O)*; CO = O=C([*:1])[*:2]; CH2F = FC*

Columns and labels:
Atmc9 [1] = target: T1, Atmc9 (Arabidopsis thaliana, UniProt Q9FYE1); assay type: biochemical; settings: for inhibition / inactivation of Atmc9: no concentration stated; for inhibition of Atmc9 activity: at the millimolar range
T1 construct: it indeed consists of amino acids 184 to 325 (calculated mass 15427 Da); made in house; host or cells: E. coli BL21(DE3), pDEST17, Ni-NTA purified
T1 sequence (Q9FYE1 1-183 limits assumed): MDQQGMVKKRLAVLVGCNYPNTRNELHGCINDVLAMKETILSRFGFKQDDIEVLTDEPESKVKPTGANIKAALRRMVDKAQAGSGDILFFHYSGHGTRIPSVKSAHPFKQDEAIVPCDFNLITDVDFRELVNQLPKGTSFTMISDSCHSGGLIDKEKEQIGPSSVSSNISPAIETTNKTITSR
T1 sequence (Q9FYE1 184-325 limits assumed): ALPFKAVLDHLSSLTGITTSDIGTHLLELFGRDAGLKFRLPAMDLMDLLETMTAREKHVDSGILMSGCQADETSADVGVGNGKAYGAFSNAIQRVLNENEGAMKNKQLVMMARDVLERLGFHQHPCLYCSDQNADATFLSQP
Procedure: Assays were performed in 150 μl with 400 ng of purified Atmc9 and 50 μM substrate in an optimized metacaspase 9 assay buffer (50 mM MES pH 5.3, 10% (w/v) sucrose, 0.1% (w/v) 3-[(3-cholamidopropyl)dimethylammonio]-1-propanesulfonate [CHAPS], 10 mM DTT). Time-dependent release of free amido-4-methylcoumarin (AMC) was measured on a Cytofluor 4000 fluorescence microplate reader (PerSeptive Biosystems, Farmingham, Md., USA).
We also assessed the sensitivity of Atmc9 for several protease inhibitors, chelating agents, metal ions, and stabilizing agents in the GKR-ase assay (Table 2). […] To optimize the assay conditions for Atmc9 activity, several stabilizing agents were tested.
Percentage of the activity of recombinant Atmc9 in 50 mM MES (pH 5.3) and 10 mM DTT.

[2] = tested on: Lysates from 293T cells overexpressing metacaspases; assay: Caspase substrates incubated with lysates from 293T cells overexpressing metacaspases; assay type: biochemical, Arabidopsis thaliana
Procedure: For mammalian overexpression, cDNAs for metacaspases were cloned into pDEST26 (Invitrogen, Gaithersburg, Md., USA), resulting in an N-terminal HIS6-fusion under transcriptional control of the constitutive CMV promoter. Human embryonic kidney cells 293T were cultured in DMEM supplemented with 2 mM L-glutamine, 10% fetal calf serum, 106 U/i streptomycin, […] penicillin and 0.4 mM sodium pyruvate. 5×10^5 cells (6 well plate) were seeded and next day transfected using the calcium phosphate method as described previously (Van de Craen et al., 1998).
Lysates from 293T cells overexpressing metacaspases were also incubated with different synthetic fluorigenic substrates for caspases, namely acetyl-Asp-Glu-Val-Asp-aminomethylcoumarin (Ac-DEVD-amc), acetyl-Ile-Glu-Thr-Asp-aminomethylcoumarin (Ac-IETD-amc), Acetyl-Leu-Glys-His-Asp-aminomethylcoumarin (Ac-LEHD-amc), acetyl-Trp-Glu-His-Asp-aminomethylcoumarin (Ac-WEHD-amc), Acetyl-Tyr-Val-Ala-Asp-aminomethylcoumarin (Ac-YVAD-amc) and benzyloxycarbonyl-Val-Ala-Asp-aminomethylcoumarin (zVAD-amc).

Atmc9 [3] = target: T1, Atmc9; assay: kcat/Km of artificial substrates of Atmc9; assay type: biochemical; settings: summary of Table 1
Procedure: The activity assay buffer used was composed of 50 mM MES pH 5.3, 10% (w/v) sucrose, 0.1% (w/v) 3-[(3-cholamidopropyl)dimethylammonio]-1-propanesulfonate [CHAPS], 10 mM DTT.
Release of free AMC was determined in a time course using a FLUOstar Optima fluorescence plate reader (BMB Lab Technologies, Offenburg, Del.). After total hydrolysis of the substrates, kcatlKm was calculated using the following formula: kcat/Km=kobsIEt, where kobs is determined as the decrease per second of the natural logarithm of substrate left, and Et is the concentration of enzyme active sites in the reaction.

metacaspase 3 = target: T2, metacaspase 3 (Arabidopsis thaliana, UniProt Q9FMG1); assay: Cleavage of fluorescent artificial substrates by purified metacaspase 3; assay type: biochemical; settings: assay buffers of pHs ranging from 4.5 to 9.0 (MES 50 mM)
T2 construct: made in house; host or cells: bacterial production, pDEST17 (E. coli by the general method)
T2 sequence (Q9FMG1 1-362 R151K/L157V/V158I/Q177E): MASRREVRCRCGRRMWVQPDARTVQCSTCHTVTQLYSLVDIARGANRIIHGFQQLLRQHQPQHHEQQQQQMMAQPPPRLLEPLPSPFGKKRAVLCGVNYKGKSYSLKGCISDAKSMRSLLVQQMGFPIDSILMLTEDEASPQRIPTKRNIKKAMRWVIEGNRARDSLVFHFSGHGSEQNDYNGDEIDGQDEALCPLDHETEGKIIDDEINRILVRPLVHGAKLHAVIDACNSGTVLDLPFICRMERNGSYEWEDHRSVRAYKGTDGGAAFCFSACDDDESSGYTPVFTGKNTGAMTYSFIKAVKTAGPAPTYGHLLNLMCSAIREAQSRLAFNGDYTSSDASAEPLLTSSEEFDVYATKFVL
Text: For generation of the prodomain deletion mutant of Arabidopsis thaliana metacaspase 3 (MC3ΔN), residues 1 to 91 were replaced by a methionine residue by PCR, using 5′-[…]-3′ (SEQ ID NO:43) as the forward primer and 5′-[…]-3′ (SEQ ID NO:17) as the reverse primer. 5′ extensions used for Gateway™ (Invitrogen) cloning were 5′-[…]-3′ (SEQ ID NO:44) for forward primers and 5′-[…]-3′ (SEQ ID NO:45) for reverse primers. For bacterial production, the cDNA's were cloned into the bacterial expression vector pDEST17™ (Invitrogen), resulting in the amino-terminal translational addition of the following HIS6 tag-containing sequence: […] (SEQ ID NO:37).
Activity of purified metacaspase 3 was tested with different fluorescent substrates in assay buffers of pHs ranging from 4.5 to 9.0 (MES 50 mM). The substrates tested were: Ac-DEVD-AMC, Z-VAD-AMC, Boc-GRR-AMC, Boc-GKR-AMC, Z-FR-AMC and H-AFK-AMC. Only Z-FR-AMC was cut by metacaspase 3.

## CC(C)C[C@H](NC(=O)[C@H]1O[C@@H]1C(=O)O)C(=O)NCCCCN=C(N)N (relative stereo) [E-64, L-trans-epoxysuccinyl-leucylamide-(4-guanido)-butane]
Atmc9 [1]
  inhibition / inactivation of Atmc9: no significant blocking capacity
Atmc9 [1]; pH 5.3
  Activity (%): 92%

## CC(C)[C@H](NC(=O)[C@H](CCCNC(=N)N)NC(=O)N[C@@H](Cc1ccccc1)C(=O)O)C(=O)N[C@H](C=O)CCCNC(=N)N [Antipain] ({Phe-CO}-Arg-Val-Arg-aldehyde)
Atmc9 [1]; pH 5.3
  Activity (%): 13%

## N=C(N)c1ccccc1 [Benzamidine]
Atmc9 [1]
  inhibition of Atmc9 activity: inhibited
Atmc9 [1]; pH 5.3
  Activity (%): 22%

## C[C@H](CCC(=O)NCCC[N+](C)(C)CCCS(=O)(=O)[O-])[C@H]1CC[C@H]2[C@@H]3[C@H](O)C[C@@H]4C[C@H](O)CC[C@]4(C)[C@H]3C[C@H](O)[C@]12C [CHAPS, 3-[(3-cholamidopropyl)dimethylammonio]-1-propanesulfonate]
Atmc9 [1]; pH 5.3
  Activity (%): 127%

## CC(C)C[C@H](NC(=O)[C@@H](NC(=O)N[C@@H](Cc1ccccc1)C(=O)O)[C@@H]1CCN=C(N)N1)C(=O)N[C@H](C=O)Cc1ccccc1 [Chymostatin]
Atmc9 [1]
  inhibition / inactivation of Atmc9: weak inhibitors
Atmc9 [1]; pH 5.3
  Activity (%): 33%

## NC(=O)CI [Iodoacetamide]
Atmc9 [1]
  inhibition of Atmc9 activity: inhibited
Atmc9 [1]; pH 5.3
  Activity (%): 8%

## CC(=O)N[C@@H](CC(C)C)C(=O)N[C@@H](CC(C)C)C(=O)N[C@H](C=O)CCCNC(=N)N [Leupeptin]
Atmc9 [1]; at concentrations as low as 1 μM
  inhibition of Atmc9: strongly inhibited
Atmc9 [1]; pH 5.3
  Activity (%): 1%

## O=S(=O)(F)Cc1ccccc1 [PMSF]
Atmc9 [1]
  inhibition / inactivation of Atmc9: no significant blocking capacity
Atmc9 [1]; reagent 1 mM, % of activity of recombinant Atmc9 in 50 mM MES pH 5.3, 10 mM DTT
  Activity (%): 86%

## CC(C)CC(=O)N[C@H](C(=O)N[C@H](C(=O)N[C@@H](CC(C)C)[C@@H](O)CC(=O)N[C@@H](C)C(=O)N[C@@H](CC(C)C)[C@@H](O)CC(=O)O)C(C)C)C(C)C [Pepstatin] (Isovaleryl-VV[Sta]A[Sta]-OH)
Atmc9 [1]
  inhibition / inactivation of Atmc9: no significant blocking capacity
Atmc9 [1]; pH 5.3
  Activity (%): 97%

## OC[C@H]1O[C@@](CO)(O[C@H]2O[C@H](CO)[C@@H](O)[C@H](O)[C@H]2O)[C@@H](O)[C@@H]1O [Sucrose]
Atmc9 [1]; pH 5.3
  Activity (%): 121%

## Cc1ccc(S(=O)(=O)N[C@@H](Cc2ccccc2)C(=O)CCl)cc1 [TPCK, N^□-tosyl-L-phenylalanyl-chloromethyl ketone]
Atmc9 [1]
  inhibition / inactivation of Atmc9: weak inhibitors
Atmc9 [1]; pH 5.3
  Activity (%): 35%

## Acetyl-Leu-Glys-His-Asp-aminomethylcoumarin [Ac-LEHD-amc]
[2]
  activity of lysates on synthetic fluorigenic caspase substrates: no significant increase in activity

## Acetyl-Tyr-Val-Ala-Asp-aminomethylcoumarin (Ac-YVAD-{AMC}; SMILES CC(=O)N[C@@H](Cc1ccc(O)cc1)C(=O)N[C@H](C(=O)N[C@@H](C)C(=O)N[C@@H](CC(=O)O)C(=O)Nc1ccc2c(C)cc(=O)oc2c1)C(C)C) [Ac-YVAD-amc]
[2]
  activity of lysates on synthetic fluorigenic caspase substrates: no significant increase in activity

## Aprotinin
Atmc9 [1]
  inhibition / inactivation of Atmc9: no significant blocking capacity
Atmc9 [1]; pH 5.3
  Activity (%): 96%

## H-Ala-Phe-Lys-7-amido-4-methylcoumarin (H-Ala-Phe-Lys-{AMC}; SMILES Cc1cc(=O)oc2cc(NC(=O)[C@H](CCCCN)NC(=O)[C@H](Cc3ccccc3)NC(=O)[C@H](C)N)ccc12) [H-AFK-AMC]
Atmc9 [3]
  quality as substrate for Atmc9: less efficiently cleaved
Metacaspase 3
  cleavage by metacaspase 3: No activity was detected

## Z-DEVD-cmk: caspase inhibitor; cmk, chloromethyl ketone
Atmc9 [1]; pH 5.3
  Activity (%): 94%

## Z-VAD-fmk: caspase inhibitor; fmk, fluoromethyl ketone ({code Z}-Val-Ala-Asp-CH2F; reading uncertain; also: printed as Z-VAD-fmk)
Atmc9 [1]; pH 5.3
  Activity (%): 87%

## Z-YVAD-cmk: caspase inhibitor; cmk, chloromethyl ketone
Atmc9 [1]; pH 5.3
  Activity (%): 100%

## acetyl-Asp-Glu-Val-Asp-aminomethylcoumarin [Ac-DEVD-AMC]
[2]
  activity of lysates on synthetic fluorigenic caspase substrates: no significant increase in activity
Metacaspase 3
  cleavage by metacaspase 3: No activity was detected

## acetyl-Ile-Glu-Thr-Asp-aminomethylcoumarin (Ac-IETD-{AMC}; SMILES CC[C@H](C)[C@H](NC(C)=O)C(=O)N[C@@H](CCC(=O)O)C(=O)N[C@H](C(=O)N[C@@H](CC(=O)O)C(=O)Nc1ccc2c(C)cc(=O)oc2c1)[C@@H](C)O) [Ac-IETD-amc]
[2]
  activity of lysates on synthetic fluorigenic caspase substrates: no significant increase in activity

## acetyl-Trp-Glu-His-Asp-aminomethylcoumarin (Ac-WEHD-{AMC}; SMILES CC(=O)N[C@@H](Cc1c[nH]c2ccccc12)C(=O)N[C@@H](CCC(=O)O)C(=O)N[C@@H](Cc1c[nH]cn1)C(=O)N[C@@H](CC(=O)O)C(=O)Nc1ccc2c(C)cc(=O)oc2c1) [Ac-WEHD-amc]
[2]
  activity of lysates on synthetic fluorigenic caspase substrates: no significant increase in activity

## benzyloxycarbonyl-Val-Ala-Asp-aminomethylcoumarin (Cbz-Val-Ala-Asp-{AMC}) [Z-VAD-AMC]
[2]
  activity of lysates on synthetic fluorigenic caspase substrates: no significant increase in activity
Metacaspase 3
  cleavage by metacaspase 3: No activity was detected

## t-butyloxycarbonyl-Gly-Arg-Arg-7-amido-4-methylcoumarin (Boc-Gly-Arg-Arg-{AMC}) [Boc-GRR-AMC]
Atmc9 [3]
  quality as substrate for Atmc9: good substrates
Metacaspase 3
  cleavage by metacaspase 3: No activity was detected

B1: Soybean trypsin inhibitor: protease inhibitor (protein)
chain: DFVLDNEGNPLENGGTYYILSDITAFGGIRAAPTGNERCPLTVVQSRNELDKGIGTIISSPYRIRFIAEGHPLSLKFDSFAVIMLCVGIPTEWSVVEDLPEGPAVKIGENKDAMDGWFRLERVSDDEFNNYKLVFCPQQAEDDKCGDIGISIDHDDGTRRLVVSKNKPLVVQFQKLDKESL
Atmc9 [1]
  inhibition / inactivation of Atmc9: no significant blocking capacity
Atmc9 [1]; pH 5.3
  Activity (%): 73%
